This is an account of results in US20090123389A1, “Methods for modulating Th17 cell development in the treatment and prevention of cellulite” (priority 2007, published 2009).

The test system of one assay is dermal ECM deposition. Particulars: cited from earlier work.
Assay [1] concerns B220+ B cells or CD8+ T cells. Description: B cell and CD8+ T cell proliferation and function. Particulars: HF 1.25-40 nM titrated. The assay is classed as cell-based, mouse. Here is the method:
The non-specific effects of HF on B and CD8+ T cells were evaluated. B220+B cells or CD8+ T cells were isolated from the spleen and peripheral lymph nodes of C57B/6 mice. B cell proliferation and IL-6 production was induced by culturing the cells with LPS (0.5 μg/ml) for 4 days. The effects of HF on B cell function was determined by adding titrating amounts of HF (1.25 nM-40 nM) at the time of LPS stimulation. B cell proliferation was monitored by labeling cells with Carboxyfluorescein diacetate, succinimidyl ester (CFSE; 5 μM) prior to LPS stimulation and determining the rate of CFSE dilution after 4 days by flow cytometric analyses. LPS-induced IL-6 production by B cells was determined by intracellular staining on day 4, following PMA+Ionomycin+Brefeldin A re-stimulation as described above. For CD8+ T cell experiments, purified CD8+ T cells were labeled with CFSE as above and the T cells were activated using anti-CD3 (1 μg/ml) and anti-CD28 (1 μg/ml) antibodies. […] CD8+ T cell proliferation was determined by monitoring CFSE dilution on day 3-post activation; CD25 expression was determined by FACS staining on day 2 of culture; differentiation of CD8+ T cells into cytolytic T cells (CTL) was evaluated on day 4 by determining expression of IFNγ and granzyme B following PMA+Ionomycin+Brefeldin A re-stimulation. […]

For `O=C(CC1NCCCC1O)Cn1cnc2cc(Br)c(Cl)cc2c1=O` (racemic) [HF, 7-bromo-6-chloro-3-[3-(3-hydroxy-2-piperidinyl)-2-oxopropyl]-4(3H)-quinazolinone], the “excess dermal ECM deposition” value with dermal ECM deposition (intra-peritoneally, added to food, or applied locally) was “reduces excess dermal ECM deposition”. Besides, the wound healing result in the assay with dermal ECM deposition (topical HF, animal models) is listed as “facilitate wound healing”. Moreover, in assay [1], the “doses at which B and CD8+ T cell proliferation and function were profoundly impaired” value is “greater than 20 nM”; the “doses with little or no effect on B and CD8+ T cell function or proliferation” value is recorded as “lower than 10 nM”.
